One assay has as its target T1, Brd2(BD2) (Homo sapiens, UniProt P25440).
T1 construct: GST tagged bromodomain proteins were purchased from BPS Bioscience; purchased BPS Bioscience
Kind of assay: HTRF BET selectivity profile, Brd2(BD2). Format: binding. Conditions: read-out: Brd2(BD2) IC50. For orientation: In TR-FRET formats the signal depends on donor and acceptor labels being close together.

A further assay concerns the target T2, Brd3(BD2) (Homo sapiens, UniProt Q15059).
T2 construct: GST tagged bromodomain proteins were purchased from BPS Bioscience; purchased BPS Bioscience
Nature of the assay: HTRF BET selectivity profile, Brd3(BD2). Type of assay: binding. The essentials:
(§1)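 HTRF peptide-displacement assay with GST-tagged bromodomains and histone peptide, 0.5% final DMSO, incubated 3 h, 6 h or overnight at room temperature or 4 °C depending on bromodomain. 665/620 nm ratio read; inhibition scaled between DMSO and no-peptide controls, IC50 in triplicate.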

Assay [1] concerns the target T3, BRD4(BD1) (Homo sapiens, UniProt O60885). Nature of the assay: BROMOscan assays. Format: binding.
Assay [2] has as its target T3, BRD4(BD1). Nature of the assay: Isothermal Titration Calorimetry. Format: binding. Conditions: Brd4 (BD1), FIG. 1; read-out: KD by ITC (orthogonal assay). A digest of the protocol:
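[…]; general protocol uses 13 injections at 25° C, with protein titrant at 10–15× the compound concentration. Integrated heats fitted to a one-site model for ΔH and KA, with ΔG and TΔS derived from these.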
For orientation: Isothermal titration calorimetry measures the heat released or taken up as one component is titrated into another.

Assay [3] deals with T3, BRD4(BD1). Kind of assay: HTRF assay, BRD4(BD1)/histone peptide interaction. Format: binding. Also on record: made in house.
In another assay the target is T4, Brd4(BD2) (Homo sapiens, UniProt O60885).
T4 construct: GST tagged bromodomain proteins were purchased from BPS Bioscience; purchased BPS Bioscience
Nature of the assay: HTRF BET selectivity profile, Brd4(BD2). Type of assay: binding. The essentials: as §1

The next assay addresses Brd3(BD1) (Homo sapiens, UniProt Q15059). Kind of assay: Thermal shift assay (BromoMELT), Brd3 (BD1). Format: binding. Also on record: containing the 61 GST- or His-tagged-bromodomains; purchased Reaction Biology. Conditions: compound at 25 μM, cut-off +/−3.5° C. The method, then: FIG. 3. Thermal Shift Assay (TSA) of 43c. The evaluation was performed on 61 bromodomains. A cut-off at +/−3.5° C. was set.
TSA “Bromoscan” assays (Reaction Biology) were performed in 384 well RT-PCR plate (BioRad) with a total working volume of 15 μL. The “BromoMelT™, containing the 61 GST- or His-tagged-bromodomains, SYPRO® Orange and a mix compounds as control, was purchased from Reaction Biology. For each point, 3 μL of protein (1×) and 12 μL master mix (buffer+SYPRO® Orange+compound at 25 μM or control mix compounds or DMSO (0.5%)) were mixed in plate. The plate was placed in a CFX384 RTQPC (BioRad), and heated 10 seconds at 25° C., then the temperature was increased from 25° C. to 90° C., by increment of 0.5° C. every 30 seconds. The fluorescence was recorded using FRET filters.

A further assay deals with c-Myc. Kind of assay: c-Myc HTRF, CEM cell line. Type of assay: cell-based. The procedure:
For additional evaluation of the effect of 43c in cell assays, an influence of the molecule on c-Myc expression was determined by c-Myc HTRF. c-Myc is a proto-oncogene that is often overexpressed in cancer. This leads to the increased expression of many genes, involved in cell proliferation, contributing to cancer development. Downregulation of c-Myc is considered as a promising approach for anticancer treatment.

pIC50, pKd: −log10 of the molar value.

Sequence of Brd3(BD1) (Q15059 34-140 limits assumed): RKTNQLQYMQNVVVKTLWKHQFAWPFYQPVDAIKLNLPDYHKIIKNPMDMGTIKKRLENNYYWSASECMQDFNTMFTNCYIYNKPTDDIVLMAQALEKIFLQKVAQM
T2 sequence (Q15059 306-415 limits assumed): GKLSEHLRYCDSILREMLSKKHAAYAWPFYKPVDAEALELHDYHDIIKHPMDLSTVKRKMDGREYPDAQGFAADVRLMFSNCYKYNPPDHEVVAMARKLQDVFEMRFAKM
T1 sequence (P25440 344-453 limits assumed): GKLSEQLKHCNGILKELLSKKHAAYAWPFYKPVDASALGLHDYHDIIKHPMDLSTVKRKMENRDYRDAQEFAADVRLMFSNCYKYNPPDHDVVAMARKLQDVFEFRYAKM

One may read the pIC50 as −log10 of the IC50, conventionally taken in molar units. Broadly, the pKd is the negative decadic logarithm of the Kd, by convention in mol/L. Usually ΔTm stands for the change in melting temperature against a reference sample. For the compound `CCn1cnc2c1c(=O)[nH]c(=O)n2Cc1ccc(CNS(=O)(=O)c2ccc(OC3CCOCC3)c(F)c2)cc1` [Compound 43c], the pIC50 at Brd2(BD2) is 5.91; on Brd3(BD2), 5.66; at BRD4(BD1) [3] (HTRF, mean of three experiments, NA = IC50 > 50 μM, read-out: Brd4(8D1) IC50) it was 7.13; at Brd4(BD2) it was 5.64. For the same compound, the pKd is 7.49 on BRD4(BD1) [1] and 7.05 on BRD4(BD1) [2]. Also, on BRD4(BD1) [1], the “selectivity ratio to the first bromodomain, BROMOscan” value is given as “up to 313 fold”. Moreover, on BRD4(BD1) [3] (selectivity Brd4(BD1) vs Brd4(BD2), HTRF IC50), the “Ratio 4-1 vs 4-2” value is 31. Besides, the ΔTm at 25 µM on Brd3(BD1) turned out to be 4.5 °C. The “concentration at which c-Myc is downregulated, CEM” value in the assay on c-Myc was determined as 2.6 µM.
